Experimental data published in patent US6506745B1, “Medicinal compositions for treatment of atrial fibrillation” (Noboru Kaneko, priority 1998, dated 2003).

Tests used:
[1] = system: atrial fibrillation induced by means of electrical stimulation; experiment: Atrial fibrillation induced by electrical stimulation in chronically paced right atrium; format: in vivo, hybrid of a labrador and beagle
From the text: In the experimental test, a hybrid of a labrador and beagle was used. An electrode for electrical excitation was embedded in the right atrium. From a week after the operation, the right atrium was subjected to a continuous pacing at an excitation frequency of 400 or 600 bpm by an external pacemaker. Further, for 31 day, the right atrium was subjected to a pacing giving a burst excitation (10 mA,50 Hz,1 sec) 5 days a week and several hours a day. Compound 1 was continuously injected into forearm vein (0.3mg/kg/min×2 min+0.03 mg/kg/min). At 20 minutes before and after administrating, the excitation current (50 Hz, 1 sec) was increased from 3 mA to 10 mA in increments of 0.5 mA to determine each atrial fibrillation threshold (AFT). Then, the atrial fibrillation duration (AF duration) and the interval (FF interval) of atrial fibrillation waves, which were generated by the excitation current of 10 mA, were measured. In FIG. 1, the mean value of the AF duration before administration was 35.1±9.0 sec, and the mean value after administration was 12.1±1.9 sec. In FIG. 2, the mean value of the FF interval before administration was 51.3±1.7 msec, and the mean value after administration was 61.7±1.8 msec.

right atrial muscle = experiment: Active potential duration (APD90) of isolated right atrial muscle under electrical stimulation; format: cell-based, beagle; details: 90 minutes after adding
Experimental: A beagle was used in the experimental test. Its right atrial. muscle was surgically extracted, and a sample was fixed with pins within an experimental vessel which is perfused with Tyrode liquid (10 ml/min). Using an electrical stimulator, the atrial muscle was stimulated by a voltage two times greater than that of generating an active potential, and rectangular waves having pulse. width of 2 msec in a frequency of 2 Hz, and the generated active potential was measured by a glass microelectrode inserted into the cells. Compound 1 was added into the experimental vessel with condensations of 0.3 μM and 1 μM. At 90 minutes before and after adding the compound, the sample was excited with various excitation frequencies, and each active potential was recorded to. determine the duration (90% recovery time; APD90).

COc1ccc2c(c1)CN(C(=O)CCN1CCC(Cc3ccccc3)CC1)CCS2 [Compound 1, 4-[3-(4-benzylpiperidine-1-yl)propionyl]-7-methoxy-2,3,4,5-tetrahydro-1,4-benzothiazepine]
atrial fibrillation duration (AF duration), mean value after administration ([1]; i.v. 0.3 mg/kg/min x 2 min + 0.03 mg/kg/min, 20 minutes after administrating, excitation current 10 mA, before administration 35.1±9.0 sec): 12.1 ± 1.9 s | interval of atrial fibrillation waves (FF interval), mean value after administration ([1]; i.v. 0.3 mg/kg/min x 2 min + 0.03 mg/kg/min, 20 minutes after administrating, excitation current 10 mA, before administration 51.3±1.7 msec): 61.7 ± 1.8 ms | atrial fibrillation threshold (AFT) after administration ([1]; i.v. 0.3 mg/kg/min x 2 min + 0.03 mg/kg/min, 20 minutes after administrating, increased from 7 mA before): 10 mA | extension of FF interval after administration ([1]; i.v. infusion, excitation current 10 mA, FIG. 2): about 20% | duration (APD90) change after addition (right atrial muscle; 0.3 μM, excitation frequency 0.67 Hz): 106.0 ± 2.01% | duration (APD90) change after addition (right atrial muscle; 0.3 μM, excitation frequency 1 Hz): 110.1 ± 2.75% | duration (APD90) change after addition (right atrial muscle; 0.3 μM, excitation frequency 2 Hz): 113.0 ± 1.48% | duration (APD90) change after addition (right atrial muscle; 0.3 μM, excitation frequency 3.33 Hz): 111.5 ± 10.52% | duration (APD90) change after addition (right atrial muscle; 1 μM, excitation frequency 0.67 Hz): 112.9 ± 6.47% | duration (APD90) change after addition (right atrial muscle; 1 μM, excitation frequency 1 Hz): 111.3 ± 5.34% | duration (APD90) change after addition (right atrial muscle; 1 μM, excitation frequency 2 Hz): 118.1 ± 2.88% | duration (APD90) change after addition (right atrial muscle; 1 μM, excitation frequency 3.33 Hz): 124.7 ± 9.40%
